Measured values published in publication PMC10101011, “A Retro-Aldol Reaction Prompted the Evolvability of a Phosphotransferase System for the Utilization of a Rare Sugar” (Microbiology Spectrum, 2023).

Columns and labels:
Type in all cases: biochemical
FruK (EC_FruK) [1] = target: T1, FruK (EC_FruK) (Escherichia coli, UniProt P0AEW9); assay: coupled NADH oxidation assay (FbaA, TPI, G3PDH); settings: 2 mM ATP, 2 mM substrate, 10 mM MgCl2, pH 8.0, 25 °C
T1 construct: His-tagged, pET-28a(+), expressed in E. coli BL21(DE3)

EC_GatY = target: T2, EC_GatY (Escherichia coli, UniProt P0C8J6); assay: coupled NADH oxidation assay (TPI, G3PDH); settings: 1 mM substrate, 10 mM MgCl2, pH 8.0, 25 °C
T2 construct: gene gatY; catalytic subunit alone without GatZ, His-tagged, pET-28a(+), 30 kDa

EC_KbaY = target: T3, EC_KbaY (Escherichia coli, UniProt P0AB74); assay: coupled NADH oxidation assay (TPI, G3PDH); settings: 1 mM substrate, 10 mM MgCl2, pH 8.0, 25 °C
T3 construct: gene kbaY; catalytic subunit alone without KbaZ, His-tagged, pET-28a(+), 31 kDa

FruK (EC_FruK) [2] = target: T4, FruK (EC_FruK) (Escherichia coli, UniProt P0AEW9, A39S); assay: coupled NADH oxidation assay (GatY, TPI, G3PDH); settings: 2 mM ATP, 2 mM substrate, 10 mM MgCl2, pH 8.0, 25 °C
T4 construct: His-tagged, pET-28a(+), expressed in E. coli BL21(DE3)
T4 sequence (P0AEW9 whole entry A39S): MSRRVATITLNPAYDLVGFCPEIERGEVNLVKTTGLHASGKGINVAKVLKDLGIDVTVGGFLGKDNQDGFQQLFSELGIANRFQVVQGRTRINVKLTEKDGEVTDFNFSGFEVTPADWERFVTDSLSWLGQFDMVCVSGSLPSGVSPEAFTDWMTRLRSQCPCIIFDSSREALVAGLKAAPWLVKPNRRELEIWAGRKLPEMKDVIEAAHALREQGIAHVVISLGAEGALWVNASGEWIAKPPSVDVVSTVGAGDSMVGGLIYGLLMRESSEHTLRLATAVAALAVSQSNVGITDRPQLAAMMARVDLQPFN

T3 sequence (P0AB74 whole entry): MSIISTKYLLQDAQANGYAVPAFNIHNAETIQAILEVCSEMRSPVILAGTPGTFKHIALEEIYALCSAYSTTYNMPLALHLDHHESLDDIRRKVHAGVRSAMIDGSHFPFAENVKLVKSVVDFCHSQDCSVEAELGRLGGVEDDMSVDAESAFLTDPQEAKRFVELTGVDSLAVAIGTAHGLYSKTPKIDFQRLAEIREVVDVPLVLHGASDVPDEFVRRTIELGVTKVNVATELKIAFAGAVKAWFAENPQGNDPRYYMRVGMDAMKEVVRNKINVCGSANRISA
T1 sequence (P0AEW9 whole entry): as the sequence (P0AEW9 whole entry A39S) above, with S39A counted along it
T2 sequence (P0C8J6 whole entry): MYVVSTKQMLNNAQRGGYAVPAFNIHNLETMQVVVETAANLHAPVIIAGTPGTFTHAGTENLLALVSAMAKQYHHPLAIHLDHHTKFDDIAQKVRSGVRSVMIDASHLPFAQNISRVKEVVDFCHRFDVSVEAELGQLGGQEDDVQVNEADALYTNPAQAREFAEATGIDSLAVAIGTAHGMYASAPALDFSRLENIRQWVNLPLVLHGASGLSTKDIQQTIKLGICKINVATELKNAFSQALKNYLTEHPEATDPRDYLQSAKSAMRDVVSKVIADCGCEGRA

Structure (SMILES): O=P(O)(O)OCC1(O)O[C@H](CO)[C@@H](O)[C@@H]1O (stereo partly drawn) [D-Fru-1P]
- coupled NADH oxidation assay (FbaA, TPI, G3PDH) (FruK (EC_FruK) [1]): for primary D-Fru-1P were much lower than that of FruK_WT

Structure (SMILES): O=P(O)(O)OC[C@H]1OC(O)(COP(=O)(O)O)[C@@H](O)[C@H]1O (stereo partly drawn) [D-Tag-1,6-BP]
- coupled NADH oxidation assay (TPI, G3PDH) (EC_GatY): EC_GatY and EC_KbaY showed much lower D-Tag-1,6-BP cleavage activity than BL_GatY
- coupled NADH oxidation assay (TPI, G3PDH) (EC_KbaY): EC_GatY and EC_KbaY showed much lower D-Tag-1,6-BP cleavage activity than BL_GatY

Structure (SMILES): O=P(O)(O)OC[C@H]1OC(O)(CO)[C@@H](O)[C@H]1O (stereo partly drawn) [D-Tag-6P]
- coupled NADH oxidation assay (GatY, TPI, G3PDH) (FruK (EC_FruK) [2]): FruK_A39S showed relatively higher activities for D-Tag-6P than FruK_WT
